The values that follow come from US4954348A, “Non-ionic polyol contrast media from ionic contrast media” (Cook Imaging Corporation, priority 1988, dated 1990).

One data set relates to Mice (female CD-1). The experiment in a line: i.v. LD50 in mice (systemic toxicity). Type of data set: in vivo. The note with it: 300 mg I/ml, 37° C., injection rate 1 ml/min. The procedure: (§1) All compounds were tested for stability, solubility, osmolality, viscosity and systemic toxicity, using conventional tests.
(§2) *All at 300 mg I/ml concentration and 37° C. Injection rates 1
(§3) ml/min in mice and 5 ml/min in rats.
(§4) ^° Ref. Salvesen, S. in Acta Radiol. Suppl. 362, p. 73, 1980.

In another data set the test system is Rats (female Lewis). The experiment in a line: i.v. LD50 in rats (systemic toxicity). The note with it: 300 mg I/ml, 37° C., injection rate 5 ml/min. Format: in vivo. How it is done: as §1, §2, §3, §4
For data set [1] the following is noted: 300 mg I/ml, 37° C.; ^+ Ref. Handbook of Experimental Pharmacology, Vol. 73; cited from earlier work.
The conditions of data set [2]: 300 mg I/ml, 37° C.; ^+ Ref. Handbook of Experimental Pharmacology, Vol. 73; cited from earlier work. This is another data set of the same source.
A short description of data set [3]: Osmolality at 300 mg I/ml, 37° C. As to conditions: for Osmolality: 300 mg I/ml, 37° C.; for osmolality versus existing compounds: existing compounds serving as control. Type of data set: physicochemical. The procedure:
as §1, §2

Data set [4] is described as follows: Viscosity at 300 mg I/ml, 37° C. Format: physicochemical. How it is done: as §1, §2
A short description of data set [5]: stability, solubility, osmolality, viscosity and systemic toxicity, conventional tests (overall statement). As to conditions: existing compounds serving as control. How it is done:
as §1

For data set [6] the following is noted: must be dispensed in lyophilized form and reconstituted prior to use; cited from earlier work.

Structures are written as SMILES. Like-named read-outs stand apart in the source and are kept apart here.

For `C[C@H](O)C(=O)Nc1c(I)c(C(=O)NC(CO)CO)c(I)c(C(=O)NC(CO)CO)c1I` [Iopamidol], the entries for the “i.v. LD50” value in the data set on Mice (female CD-1) and with Rats (female Lewis) were 17-18.5 gI/kg and 12.2-13 gI/kg, respectively. For the same molecule, in data set [1], the Osmolality is 619 mOsm/kg. Besides, the Viscosity in data set [2] is 4.5 cps.
For the molecule `CC(=O)N(CC(O)CO)c1c(I)c(C(=O)NCC(O)CO)c(I)c(C(=O)NCC(O)CO)c1I` (stereo not shown) [Iohexol], the “i.v. LD50” value is recorded as 17.9 gI/kg with Mice (female CD-1) and 13.5-15 gI/kg with Rats (female Lewis). Besides, the Osmolality in data set [1] was 690 mOsm/kg. Besides, the Viscosity in data set [2] is given as 6.1 cps.
`COCC(=O)Nc1c(I)c(C(=O)NCC(O)CO)c(I)c(C(=O)N(C)CC(O)CO)c1I` (stereo not shown) [Iopromide]: the “i.v. LD50” value was 11.5-13.0 gI/kg with Mice (female CD-1) and 10-11.5 gI/kg with Rats (female Lewis). For the same molecule, the Osmolality in data set [1] is 607 mOsm/kg. Besides, the Viscosity in data set [2] is 4.8 cps.
The molecule `CNC(=O)c1c(I)c(C(=O)N[C@H](CO)[C@@H](O)CO)c(I)c(N(CC(O)CO)C(C)=O)c1I` (relative stereo) [XVI, 5-(N-2,3-Dihydroxypropylacetamido)-2,4,6-triido-N-methyl-N'-(1,3,4-trihydroxy-erythro-but-2-yl)-isophthalamide] returned an Osmolality in data set [3] of 513 mOsm/kg. In data set [3], the “osmolality versus existing compounds” value is “substantially reduced osmolality”. The Viscosity in data set [4] is 5.2 cps. The figures for the “i.v. LD50” value in the data set on Mice (female CD-1) and in the data set with Rats (female Lewis) were 12-13 gI/kg and 13.5-14 gI/kg, respectively. Further, in data set [5], the “stability, solubility, viscosity and systemic toxicity (other categories) versus existing compounds” value is listed as “comparable or superior properties in the other categories”.
The molecule `CC(=O)N(CC(O)CO)c1c(I)c(C(=O)NCCO)c(I)c(C(=O)NCC(O)CO)c1I` (stereo not shown) [VIII, 5-(N-2,3-Dihydroxypropylacetamido)-2,4,6-triiodo-N-(2,3-dihydroxypropyl)-N'-(2-hydroxyethyl)isophthalamide] registered an Osmolality in data set [3] of 524 mOsm/kg. Moreover, the “osmolality versus existing compounds” value in data set [3] is on record as “substantially reduced osmolality”. The Viscosity in data set [4] came to 4.9 cps. The “i.v. LD50” value with Mice (female CD-1) was 18.8 gI/kg; with Rats (female Lewis), 14-16.5 gI/kg. The “stability, solubility, viscosity and systemic toxicity (other categories) versus existing compounds” value in data set [5] was “comparable or superior properties in the other categories”.
As to `CC(=O)Nc1c(I)c(C(=O)N[C@H]2C(O)O[C@H](CO)[C@@H](O)[C@@H]2O)c(I)c(N(C)C(C)=O)c1I` (stereo partly shown) [Metrizamide], the hydrolytic stability entry in data set [6] is “hydrolytic instability”.
